# Data from patent US8530387B2, “Dithiinopyridazinone derivatives” (Bayer CropScience AG, priority 2010, dated 2013).
# What was measured:
# [1] = logP by HPLC on reversed-phase column (C18), EEC Directive 79/831 Annex V.A8; type: physicochemical; conditions: for Log P: pH 2.7
# Method: The logP values reported in the preparation examples and tables above are determined in accordance with EEC Directive 79/831 Annex V.A8 by means of HPLC (High Performance Liquid Chromatography) on a reversed-phase column (C18). Temperature: 43° C. […] Calibration takes place using unbranched alkan-2-ones (having 3 to 16 carbon atoms) of which the logP values are known (logP values determined on the basis of the retention times, by linear interpolation between two successive alkanones). The lambda-max values were determined on the basis of the UV spectra from 200 nm to 400 nm in the maxima of the chromatographic signals.
# Puccinia recondita = experiment: Puccinia test (wheat)/protective; type: in vivo; conditions: young wheat plants, protective spray, 1500 ppm, evaluation 7-9 days following inoculation
# Source text: Puccinia Test (Wheat)/Protective • Solvent: 49 parts by weight of N,N-dimethylformamide • Emulsifier: 1 part by weight of alkylaryl polyglycol ether An appropriate preparation of active compound is produced by mixing 1 part by weight of active compound with the stated amounts of solvent and emulsifier and diluting the concentrate with water to the desired concentration. To test for protective activity, young wheat plants are sprayed with the preparation of active compound at the stated application rate. […] Subsequently the plants stand at 80% relative humidity and at a temperature of 20° C. After 7-9 days following inoculation, evaluation takes place.
# Alternaria solani = experiment: Alternaria test (tomato)/protective; type: in vivo; conditions: young tomato plants, protective spray, 1500 ppm, evaluation 7 days following inoculation
# Source text: Alternaria Test (Tomato)/Protective • Solvent: 49 parts by weight of N,N-dimethylformamide • Emulsifier: 1 part by weight of alkylaryl polyglycol ether An appropriate preparation of active compound is produced by mixing 1 part by weight of active compound with the stated amounts of solvent and emulsifier and diluting the concentrate with water to the desired concentration. To test for protective activity, young tomato plants are sprayed with the preparation of active compound at the stated application rate. […] Subsequently the plants stand at 96% relative humidity and a temperature of 20° C. After 7 days following inoculation, evaluation takes place.
# Phytophthora infestans = type: in vivo; conditions: young tomato plants, protective spray, 1500 ppm, evaluation 7 days following inoculation
# Plasmopara viticola = experiment: Plasmopara test (grapevine)/protective; type: in vivo; conditions: young grapevine plants, protective spray, 250 ppm, evaluation 6 days following inoculation
# Venturia inaequalis = experiment: Venturia test (apple)/protective; type: in vivo; conditions: young apple plants, protective spray, 250 ppm, evaluation 10 days following inoculation
# Method: Venturia Test (Apple)/Protective […] An appropriate preparation of active compound is produced by mixing 1 part by weight of active compound with the stated amounts of solvent and emulsifier and diluting the concentrate with water to the desired concentration. To test for protective activity, young plants are sprayed with the preparation of active compound at the stated application rate. […] Subsequently the plants are placed in a greenhouse at approximately 21° C. and approximately 90% humidity. After 10 days following inoculation, evaluation takes place.
SMILES,Log P [1],Efficacy in % (Puccinia recondita) [%],"chromatographic logP ([1]; HPLC, C18, 43° C., acidic range pH 2.7 (0.1% aqueous formic acid/acetonitrile), read-out: Log P)",Efficacy in % (Alternaria solani) [%],Efficacy in % (Phytophthora infestans) [%],Efficacy in % (Plasmopara viticola) [%],Efficacy in % (Venturia inaequalis) [%]
Cn1c(=O)c2c(c(=O)n1C)SC(C#N)=C(C#N)S2 [Compound 1],1.39,90,,,,,
"N#CC1=C(C#N)Sc2c(c(=O)n3n(c2=O)CCCC3)S1 [Compound 2, 5,12-dioxo-5,7,8,9,10,12-hexahydro[1,4]dithiino[2,3-d]pyridazino[1,2-a]pyridazine-2,3-dicarbonitrile]",,95,1.74,93,88,100,89
CCn1c(=O)c2c(c(=O)n1CC)SC(C#N)=C(C#N)S2 [Compound 3],2.05,95,,86,75,,
CCCn1c(=O)c2c(c(=O)n1CCC)SC(C#N)=C(C#N)S2 [Compound 4],2.80,95,,93,94,,
CCCn1c(=O)c2c(c(=O)n1CC)SC(C#N)=C(C#N)S2 [Compound 5],2.46,95,,93,94,95,95
N#CC1=C(C#N)Sc2c(c(=O)n3n(c2=O)CCOCC3)S1 [Compound 6],1.51,95,,86,75,,
CCCn1c(=O)c2c(c(=O)n1C)SC(C#N)=C(C#N)S2 [Compound 7],2.08,80,,93,88,,
N#CC1=C(C#N)Sc2c(c(=O)n3n(c2=O)CCC3)S1 [Compound 8],1.20,95,,86,75,,
CCn1c(=O)c2c(c(=O)n1C)SC(C#N)=C(C#N)S2 [Compound 9],1.72,95,,86,94,93,86
Cn1c(=O)c2c(c(=O)n1C)Sc1c(c(=O)n(C)n(C)c1=O)S2 [Compound 10],0.74,,,,,,
